Measured values published in patent US20120083522A1, “MODULATION OF INFLAMMATORY RESPONSES BY FACTOR XI” (Isis Pharmaceuitcals, inc., priority 2009, published 2012).
In the oligonucleotide strings, read from the 5' end, every base follows the letter of its sugar. An asterisk marks phosphorothioate; unmarked linkages are phosphodiester. Other units and linkages are bracketed, terminal groups are in braces. A string of capitals states the bases alone. e = 2'-O-(2-methoxyethyl) (MOE); [5mC] = 5-methylcytosine; d = 2'-deoxy (DNA)

Legend:
[1] = Tolerability in Sprague-Dawley rats: hematology assays (Example 23); format: in vivo; set-up: RBC / WBC / Neutrophil / Lymphocyte / Platelets: unit not given here; details: blood
[2] = Tolerability in CD1 mice: body and organ weight (Example 25); format: in vivo; details: 50 mg/kg s.c. twice per week for 6 weeks; for Kidney weight as percentage of body weight / Liver weight as percentage of body weight / Spleen weight as percentage of body weight: end of study

Row | Substance | RBC [1] | WBC [1] | Body weight (increase over PBS control weight before start of treatment) [2] [g] | Kidney weight as percentage of body weight [2] [%] | Liver weight as percentage of body weight [2] [%] | Spleen weight as percentage of body weight [2] [%]
1 | ISIS 416860: gapmer of Table 8 (antisense e[5mC]*eG*eG*eA*e[5mC]*dG*dG*d[5mC]*dA*dT*dT*dG*dG*dT*dG*e[5mC]*eA*e[5mC]*eA*eG) | 7.8 | 17 | – | – | – | –
2 | ISIS 416861: gapmer of Table 8 (antisense eG*e[5mC]*eG*eG*eA*d[5mC]*dG*dG*d[5mC]*dA*dT*dT*dG*dG*dT*eG*e[5mC]*eA*e[5mC]*eA) | 7.7 | 15 | – | – | – | –
3 | ISIS 416863: gapmer of Table 8 (antisense e[5mC]*eA*eG*e[5mC]*eG*dG*dA*d[5mC]*dG*dG*d[5mC]*dA*dT*dT*dG*eG*eT*eG*e[5mC]*eA) | 7.6 | 17 | – | – | – | –
4 | ISIS 416866: gapmer of Table 8 (antisense e[5mC]*eT*eG*eG*e[5mC]*dA*dG*d[5mC]*dG*dG*dA*d[5mC]*dG*dG*d[5mC]*eA*eT*eT*eG*eG) | 7.8 | 20 | – | – | – | –
5 | ISIS 416867: gapmer of Table 8 (antisense eA*e[5mC]*eT*eG*eG*d[5mC]*dA*dG*d[5mC]*dG*dG*dA*d[5mC]*dG*dG*e[5mC]*eA*eT*eT*eG) | 7.8 | 14 | – | – | – | –
6 | ISIS 445498: microwalk gapmer of Table 51 (antisense eG*eG*eT*eG*e[5mC]*eA*d[5mC]*dA*dG*dT*dT*dT*d[5mC]*dT*eG*eG*e[5mC]*eA*eG*eG) | – | – | 10 | 1.6 | 6 | 0.5
7 | ISIS 445504: microwalk gapmer of Table 51 (antisense eG*eG*e[5mC]*eA*eT*eT*dG*dG*dT*dG*d[5mC]*dA*d[5mC]*dA*eG*eT*eT*eT*e[5mC]*eT) | – | – | 11 | 1.6 | 6 | 0.4
8 | ISIS 445505: microwalk gapmer of Table 51 (antisense e[5mC]*eG*eG*e[5mC]*eA*eT*dT*dG*dG*dT*dG*d[5mC]*dA*d[5mC]*eA*eG*eT*eT*eT*e[5mC]) | – | – | 12 | 1.5 | 6 | 0.5
9 | ISIS 445509: microwalk gapmer of Table 51 (antisense e[5mC]*eG*eG*eA*e[5mC]*eG*dG*d[5mC]*dA*dT*dT*dG*dG*dT*eG*e[5mC]*eA*e[5mC]*eA*eG) | – | – | 10 | 1.6 | 6 | 0.5
10 | ISIS 445513: microwalk gapmer of Table 51 (antisense eG*e[5mC]*eA*eG*e[5mC]*eG*dG*dA*d[5mC]*dG*dG*d[5mC]*dA*dT*eT*eG*eG*eT*eG*e[5mC]) | – | – | 9 | 1.6 | 5 | 0.4
